Measurements taken from patent US20150291593A1, “NOVEL HETEROARYL AND HETEROCYCLE COMPOUNDS, COMPOSITIONS AND METHODS” (HUTCHISON MEDIPHARMA LIMITED, priority 2012, published 2015).
pIC50: −log10 of the molar value.

How the values were obtained:
Assay type in all cases: biochemical
p110δ/p85α = molecular target: T1, p110δ/p85α (Homo sapiens, UniProt O00329); assay: Transcreener KINASE Assay, kinase inhibition of p110δ/p85α; conditions: for pIC50: read-out: PI3Kδ IC50
T1 construct: purchased Invitrogen
T1 sequence (O00329 whole entry, species assumed): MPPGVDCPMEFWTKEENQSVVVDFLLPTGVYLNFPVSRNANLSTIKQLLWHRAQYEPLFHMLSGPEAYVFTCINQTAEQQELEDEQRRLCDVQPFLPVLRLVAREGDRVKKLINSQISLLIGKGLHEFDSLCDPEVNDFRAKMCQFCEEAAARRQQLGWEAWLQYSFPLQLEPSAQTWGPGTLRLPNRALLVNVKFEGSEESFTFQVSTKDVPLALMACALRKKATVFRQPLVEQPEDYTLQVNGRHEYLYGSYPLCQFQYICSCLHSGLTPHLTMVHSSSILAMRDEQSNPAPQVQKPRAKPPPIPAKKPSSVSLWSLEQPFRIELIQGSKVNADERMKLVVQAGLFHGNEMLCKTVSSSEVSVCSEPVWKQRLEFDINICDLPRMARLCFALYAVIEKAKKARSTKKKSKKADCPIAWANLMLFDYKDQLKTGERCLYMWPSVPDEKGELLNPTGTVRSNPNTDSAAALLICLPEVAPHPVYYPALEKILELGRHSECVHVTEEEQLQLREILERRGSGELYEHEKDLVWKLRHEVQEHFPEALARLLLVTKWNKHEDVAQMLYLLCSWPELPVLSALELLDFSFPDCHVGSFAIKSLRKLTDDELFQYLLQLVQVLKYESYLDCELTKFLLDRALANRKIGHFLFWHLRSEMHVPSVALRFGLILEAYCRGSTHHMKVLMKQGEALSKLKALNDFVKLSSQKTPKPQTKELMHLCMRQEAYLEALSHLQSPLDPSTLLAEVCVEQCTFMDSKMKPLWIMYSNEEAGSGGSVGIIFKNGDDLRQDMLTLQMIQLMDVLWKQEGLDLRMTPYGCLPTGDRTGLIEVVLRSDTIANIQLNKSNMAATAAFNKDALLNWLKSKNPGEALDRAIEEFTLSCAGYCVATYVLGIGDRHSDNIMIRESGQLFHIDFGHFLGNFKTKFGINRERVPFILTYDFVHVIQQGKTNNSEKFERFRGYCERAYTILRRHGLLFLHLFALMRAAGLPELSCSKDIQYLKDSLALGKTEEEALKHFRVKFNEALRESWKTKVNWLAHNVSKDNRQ
T1 sequence (P27986 whole entry partner, species assumed): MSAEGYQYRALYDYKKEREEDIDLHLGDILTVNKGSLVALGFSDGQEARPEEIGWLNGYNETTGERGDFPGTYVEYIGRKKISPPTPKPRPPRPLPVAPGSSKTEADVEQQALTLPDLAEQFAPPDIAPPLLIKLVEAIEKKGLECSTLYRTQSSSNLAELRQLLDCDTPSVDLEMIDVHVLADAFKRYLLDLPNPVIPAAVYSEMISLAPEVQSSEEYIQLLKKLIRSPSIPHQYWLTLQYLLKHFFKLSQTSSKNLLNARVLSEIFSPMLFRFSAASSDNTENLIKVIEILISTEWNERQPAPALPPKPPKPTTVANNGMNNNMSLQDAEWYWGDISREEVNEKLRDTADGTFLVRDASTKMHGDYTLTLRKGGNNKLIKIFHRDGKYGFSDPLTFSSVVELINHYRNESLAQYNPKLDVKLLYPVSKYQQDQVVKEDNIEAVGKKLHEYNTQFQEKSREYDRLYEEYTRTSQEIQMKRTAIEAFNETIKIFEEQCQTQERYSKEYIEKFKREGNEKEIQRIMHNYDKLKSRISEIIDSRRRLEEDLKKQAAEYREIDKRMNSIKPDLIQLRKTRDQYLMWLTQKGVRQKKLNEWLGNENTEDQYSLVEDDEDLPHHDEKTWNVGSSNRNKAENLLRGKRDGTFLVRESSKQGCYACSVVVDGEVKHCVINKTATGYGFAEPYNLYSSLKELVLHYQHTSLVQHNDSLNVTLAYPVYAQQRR
Protocol: (§1) PI3K kinases including p110α/p85α, p110δ/p85α and p110γ are purchased from Invitrogen, and p110β/p85α is from Millipore.
(§2) Primary screening data and IC50 values are measured using Transcreener™ KINASE Assay (Bellbrook, Catalog #3003-10K). […] It is a universal, homogenous, high throughput screening (HTS) technology using a far-red, competitive fluorescence polarization immunoassay based on the detection of ADP to monitor the activity of enzymes that catalyze group transfer reactions. Briefly, the Transcreener KINASE Assay is designed as a simple two-part, endpoint assay.
(§3) In the first step, the 25 ul kinase reaction is performed by preparing a reaction mixture containing 5 ul test compound (2% DMSO final concentration), 10 ul kinase, buffer (50 mM HEPES, 100 mM NaCl, 1 mM EGTA, 0.03% CHAPS, 3 mM MgCl2, and freshly supplemented 1 mM DTT), and 10 ul 30 uM PIP2/10 uM ATP. The plate is sealed and incubated for 80 min at room temperature. Next, 25 ul ADP detection mix is added per well. The plate is sealed again and incubated for 60 min at room temperature, and then measure fluorescence polarization by Tecan Infinite F500 Reader.
(§4) Data is analyzed and IC50s are generated using the add-in software for Microsoft Excel, Xlfit™ (version 2.0). IH %=(ADP amount under 2% DMSO-ADP amount under test compound)/ADP amount under 2% DMSO.

p110β/p85α = molecular target: T2, p110β/p85α (Homo sapiens, UniProt P42338); assay: Transcreener KINASE Assay, kinase inhibition of p110β/p85α; conditions: for pIC50: read-out: PI3Kβ IC50
T2 construct: purchased Millipore
T2 sequence (P42338 whole entry, species assumed): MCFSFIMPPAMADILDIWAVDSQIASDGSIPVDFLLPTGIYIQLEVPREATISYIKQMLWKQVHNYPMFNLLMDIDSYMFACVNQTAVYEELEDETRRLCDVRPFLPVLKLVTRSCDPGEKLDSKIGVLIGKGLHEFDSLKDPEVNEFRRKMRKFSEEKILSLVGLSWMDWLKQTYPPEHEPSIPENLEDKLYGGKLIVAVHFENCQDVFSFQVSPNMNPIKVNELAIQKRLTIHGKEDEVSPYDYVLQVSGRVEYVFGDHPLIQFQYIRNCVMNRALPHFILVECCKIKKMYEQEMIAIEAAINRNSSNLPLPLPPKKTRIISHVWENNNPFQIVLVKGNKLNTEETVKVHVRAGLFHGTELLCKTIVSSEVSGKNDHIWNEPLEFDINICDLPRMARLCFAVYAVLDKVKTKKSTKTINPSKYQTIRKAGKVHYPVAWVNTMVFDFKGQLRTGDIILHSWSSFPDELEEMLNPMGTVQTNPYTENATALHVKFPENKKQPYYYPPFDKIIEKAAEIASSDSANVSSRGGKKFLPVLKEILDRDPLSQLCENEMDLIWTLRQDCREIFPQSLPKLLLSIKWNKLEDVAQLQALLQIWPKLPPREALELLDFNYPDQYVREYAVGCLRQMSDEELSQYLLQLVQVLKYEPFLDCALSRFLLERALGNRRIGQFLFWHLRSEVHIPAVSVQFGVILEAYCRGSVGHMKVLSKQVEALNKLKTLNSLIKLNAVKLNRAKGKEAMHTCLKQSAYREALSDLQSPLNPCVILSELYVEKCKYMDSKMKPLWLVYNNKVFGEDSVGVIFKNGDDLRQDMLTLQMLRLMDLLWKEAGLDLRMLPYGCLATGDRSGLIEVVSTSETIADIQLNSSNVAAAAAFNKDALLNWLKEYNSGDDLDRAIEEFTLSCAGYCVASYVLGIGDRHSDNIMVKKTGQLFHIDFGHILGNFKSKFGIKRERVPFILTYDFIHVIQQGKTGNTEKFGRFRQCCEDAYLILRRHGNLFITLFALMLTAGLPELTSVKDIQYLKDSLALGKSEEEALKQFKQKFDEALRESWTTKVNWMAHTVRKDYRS
T2 sequence (P27986 whole entry partner, species assumed): as the sequence (P27986 whole entry partner, species assumed) above
Protocol: as §1, §2, §3, §4

p110γ = molecular target: T3, p110γ (Homo sapiens, UniProt P48736); assay: Transcreener KINASE Assay, kinase inhibition of p110γ; conditions: for pIC50: read-out: PI3Kγ IC50
T3 construct: purchased Invitrogen
T3 sequence (P48736 whole entry, species assumed): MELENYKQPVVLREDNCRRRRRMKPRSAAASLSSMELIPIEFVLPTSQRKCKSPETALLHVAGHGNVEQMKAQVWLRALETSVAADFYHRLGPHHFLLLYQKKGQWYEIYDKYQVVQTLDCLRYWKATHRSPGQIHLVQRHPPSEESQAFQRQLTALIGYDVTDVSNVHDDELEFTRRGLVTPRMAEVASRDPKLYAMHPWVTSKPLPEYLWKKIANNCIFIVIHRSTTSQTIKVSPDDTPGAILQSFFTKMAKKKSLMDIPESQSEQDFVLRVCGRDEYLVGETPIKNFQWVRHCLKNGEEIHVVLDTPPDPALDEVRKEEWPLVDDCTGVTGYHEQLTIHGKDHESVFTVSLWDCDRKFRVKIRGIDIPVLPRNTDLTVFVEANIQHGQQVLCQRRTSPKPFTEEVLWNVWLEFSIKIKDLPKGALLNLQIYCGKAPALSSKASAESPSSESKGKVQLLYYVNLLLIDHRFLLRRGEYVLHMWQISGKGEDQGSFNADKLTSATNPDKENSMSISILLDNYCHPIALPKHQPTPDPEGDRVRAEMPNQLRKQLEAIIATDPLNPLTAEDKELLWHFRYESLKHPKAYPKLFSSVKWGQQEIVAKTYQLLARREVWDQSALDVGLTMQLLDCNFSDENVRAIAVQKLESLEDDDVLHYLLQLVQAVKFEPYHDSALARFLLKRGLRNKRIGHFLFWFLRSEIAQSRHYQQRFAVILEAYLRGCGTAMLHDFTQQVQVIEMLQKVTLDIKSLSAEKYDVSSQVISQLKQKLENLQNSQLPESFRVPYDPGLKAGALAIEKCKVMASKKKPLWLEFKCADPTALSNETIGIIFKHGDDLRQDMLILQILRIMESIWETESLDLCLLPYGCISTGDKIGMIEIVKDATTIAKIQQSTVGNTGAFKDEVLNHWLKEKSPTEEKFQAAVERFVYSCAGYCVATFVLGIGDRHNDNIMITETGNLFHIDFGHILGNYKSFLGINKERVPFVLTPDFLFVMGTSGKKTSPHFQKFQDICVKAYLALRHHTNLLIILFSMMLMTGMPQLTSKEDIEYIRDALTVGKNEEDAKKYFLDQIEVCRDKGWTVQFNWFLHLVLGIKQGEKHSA
Protocol: PI3K kinases including p110α/p85α, p110δ/p85α and p110γ are purchased from Invitrogen, and p110β/p85α is from Millipore. Primary screening data and IC50 values are measured using Transcreener™ KINASE Assay (Bellbrook, Catalog #3003-10K). […] It is a universal, homogenous, high throughput screening (HTS) technology using a far-red, competitive fluorescence polarization immunoassay based on the detection of ADP to monitor the activity of enzymes that catalyze group transfer reactions. Briefly, the Transcreener KINASE Assay is designed as a simple two-part, endpoint assay. […] The plate is sealed and incubated for 80 min at room temperature. Next, 25 ul ADP detection mix is added per well. The plate is sealed again and incubated for 60 min at room temperature, and then measure fluorescence polarization by Tecan Infinite F500 Reader. Data is analyzed and IC50s are generated using the add-in software for Microsoft Excel, Xlfit™ (version 2.0).

| Structure (SMILES) | pIC50 (p110δ/p85α) | pIC50 (p110β/p85α) | pIC50 (p110γ) | PI3Kβ IH % @ 1 uM (p110β/p85α) [%] | PI3Kδ IH % @ 1 uM (p110δ/p85α) [%] | PI3Kγ IH % @ 1 uM (p110γ) [%] |
| --- | --- | --- | --- | --- | --- | --- |
| CC(Nc1ncnc2[nH]cc(F)c12)c1cc2ncc(Cl)n2c(=O)n1-c1ccccc1 (single isomer, unassigned) [Compound 451] | 7.46 |  |  |  |  |  |
| CC(=O)c1cnc(N)nc1NC(C)c1cn2ccc(F)c2c(=O)n1-c1ccccc1 (single isomer, unassigned) [Compound 452] | 9.52 | 7.89 | 9.00 |  |  |  |
| Nc1nc(N2CCC[C@H]2c2nn3cccc3c(=O)n2-c2ccccc2)c2cn[nH]c2n1 [Compound 11] |  |  |  | −7.7 | 22.9 | 24.4 |
| O=c1c2cccn2nc([C@@H]2CCCN2c2ncnc3[nH]nc(Br)c23)n1-c1ccccc1 [Compound 12] | 6.80 |  |  | 23.1 | 80.6 | 27.9 |
| O=c1c2cccn2nc([C@@H]2CCCN2c2ncnc3[nH]cnc23)n1-c1cccc(F)c1 [Compound 13] |  |  | 6.32 | 18.0 | 97.8 | 71.9 |
| O=c1c2cccn2nc([C@@H]2CCCN2c2ncnc3[nH]cnc23)n1-c1ccc(F)cc1 [Compound 14] |  |  | 6.58 | 56.9 | 90.7 | 78.1 |
| O=c1c2cccn2nc([C@@H]2CCCN2c2ncnc3[nH]cnc23)n1-c1cccc(Cl)c1 [Compound 17] |  |  |  | 9.2 | 100 | 60.3 |
| COc1cccc(-n2c([C@@H]3CCCN3c3ncnc(N)c3C#N)nn3cccc3c2=O)c1 [Compound 19] |  |  | 6.54 | 24.0 | 100 | 75.7 |
| COc1cccc(-n2c([C@@H]3CCCN3c3ncnc(N)c3Cl)nn3cccc3c2=O)c1 [Compound 21] |  |  |  | −1.3 | 94.3 | 30.4 |
| Cc1ccn2nc([C@@H]3CCCN3c3ncnc4[nH]cc(C#N)c34)n(-c3ccccc3)c(=O)c12 [Compound 42] | ~9.00 |  |  |  |  |  |
| N#Cc1c[nH]c2ncnc(N3C[C@H](O)C[C@H]3c3nn4ccc(Cl)c4c(=O)n3-c3ccccc3)c12 [Compound 70, 4-((2S,4R)-2-(5-chloro-4-oxo-3-phenyl-3,4-dihydropyrrolo[1,2-f][1,2,4]triazin-2-yl)-4-hydroxypyrrolidin-1-yl)-7H-pyrrolo[2,3-d]pyrimidine-5-carbonitrile] |  |  |  |  |  | >100 |
| COc1ccc(-c2c(N)ncnc2N2CC[C@H]2c2nn3ccc(Cl)c3c(=O)n2-c2ccccc2)cn1 [Compound 108, (S)-2-(1-(6-amino-5-(6-methoxypyridin-3-yl)pyrimidin-4-yl)azetidin-2-yl)-5-chloro-3-phenylpyrrolo[1,2-f][1,2,4]triazin-4(3H)-one] | 7.01 |  | 6.70 |  |  |  |
| O=c1c2c(Cl)ccn2nc([C@@H]2COCCN2c2ncnc3[nH]cnc23)n1-c1ccccc1 [Compound 153] | 7.96 |  | 6.78 |  |  |  |
| COc1ncc(-c2c[nH]c3ncnc(N4CC[C@H]4c4nn5ccc(F)c5c(=O)n4-c4ccccc4)c23)cn1 [Compound 181] | > 9.34 |  |  |  |  |  |
| COc1ccc(-c2c[nH]c3ncnc(N4CC[C@H]4c4nn5ccc(F)c5c(=O)n4-c4ccccc4)c23)cn1 [Compound 182] | > 9.34 |  |  |  |  |  |
| Nc1ccc(-c2c[nH]c3ncnc(N4CC[C@H]4c4nn5ccc(F)c5c(=O)n4-c4ccccc4)c23)cn1 [Compound 183] | > 9.34 |  |  |  |  |  |
| CO/N=C(\C)c1c[nH]c2ncnc(N3CCC[C@H]3c3nn4ccc(Cl)c4c(=O)n3-c3ccccc3)c12 [Compound 308] | 7.68 |  | 7.43 |  |  |  |
| CC(O)c1cnc(N)nc1N1CC[C@H]1c1nn2ccc(Cl)c2c(=O)n1-c1ccccc1 (stereo partly drawn) [Compound 357, 2-((2S)-1-(2-amino-5-(1-hydroxyethyl)pyrimidin-4-yl)azetidin-2-yl)-5-chloro-3-phenylpyrrolo[2,1-f][1,2,4]triazin-4(3H)-one] | < 6.52 |  |  |  |  |  |

Continued, values first:

| pIC50 (p110δ/p85α) | pIC50 (p110β/p85α) | pIC50 (p110γ) | PI3Kβ IH % @ 1 uM (p110β/p85α) [%] | PI3Kδ IH % @ 1 uM (p110δ/p85α) [%] | PI3Kγ IH % @ 1 uM (p110γ) [%] | Structure (SMILES) |
| --- | --- | --- | --- | --- | --- | --- |
|  |  |  | 31.1 | >100 | 83.8 | COc1cccc(-n2c([C@@H]3CCCN3c3ncnc4[nH]cc(C#N)c34)nn3cccc3c2=O)c1 [Compound 9] |
|  |  |  | 6.0 | 60.4 | 59.5 | Nc1nc(N2CCC[C@H]2c2nn3cccc3c(=O)n2-c2ccccc2)c2cc[nH]c2n1 [Compound 10] |
|  |  | 7.07 | 25.1 | 100 | 87.3 | N#Cc1c[nH]c2ncnc(N3CCC[C@H]3c3nn4cccc4c(=O)n3-c3cccc(F)c3)c12 [Compound 16] |
|  |  |  | 30.9 | 100 | 53.2 | Nc1ncnc(N2CCC[C@H]2c2nn3cccc3c(=O)n2-c2ccccc2)c1Cl [Compound 18] |
|  |  |  | 7.5 | 97.4 | 68.6 | COc1cccc(-n2c([C@@H]3CCCC3c3ncnc4[nH]cnc34)nn3cccc3c2=O)c1 (stereo partly shown) [Compound 20] |
|  |  |  | 8.9 | 7.7 | 21.2 | N#Cc1c[nH]c2ncnc(N3CCC[C@@H]3c3nn4cccc4c(=O)n3-c3ccccc3)c12 [Compound 22] |
|  |  | 6.56 | 36.9 | 99.2 | 81.9 | N#Cc1cccc(-n2c([C@@H]3CCCN3c3ncnc4[nH]cc(C#N)c34)nn3cccc3c2=O)c1 [Compound 23] |
|  |  |  | 8.3 | 17.7 | 14.1 | O=c1c2cccn2nc([C@H]2CCCN2c2ncnc3[nH]cnc23)n1-c1ccccc1 [Compound 24] |
| 8.40 |  | 8.00 | 82.0 |  |  | CC(Nc1ncnc2[nH]cc(C#N)c12)c1cn2ccc(Cl)c2c(=O)n1-c1cccc(F)c1 (stereo not shown) [Compound 76] |
|  | 7.59 | 7.74 |  |  |  | CC(Nc1ncnc2[nH]cnc12)c1cn2ccc(Cl)c2c(=O)n1-c1ccc(F)cc1 (stereo not shown) [Compound 78] |
|  | 8.22 |  |  | 99.0 |  | CC(Nc1ncnc(N)c1C#N)c1cn2ccc(Cl)c2c(=O)n1-c1ccc(F)cc1 (stereo not shown) [Compound 79] |
| 8.15 |  | 7.34 |  | >100 |  | CC(Nc1ncnc2[nH]cnc12)c1cn2ccc(Cl)c2c(=O)n1-c1cc(F)cc(F)c1 (stereo not shown) [Compound 80] |
| 8.22 |  | 7.15 | 79.0 | >100 |  | CC(Nc1ncnc(N)c1C#N)c1cn2ccc(Cl)c2c(=O)n1-c1cc(F)cc(F)c1 (stereo not shown) [Compound 81] |
| 8.52 | 6.83 | 8.22 | 78.8 | >100 | 94.2 | O=c1c2cccn2nc([C@@H]2CCCN2c2ncnc3[nH]cc(-c4cn[nH]c4)c23)n1-c1ccccc1 [Compound 99] |
| > 9.30 |  |  |  |  |  | Nc1ncc(-c2c[nH]c3ncnc(N4CC[C@H]4c4nn5ccc(Cl)c5c(=O)n4-c4ccccc4)c23)cn1 [Compound 104] |
| 6.63 |  |  | 61.9 | 86.8 | 41.1 | N#Cc1c[nH]c2ncnc(N3CCC[C@H]3c3nn4c(F)ccc4c(=O)[nH]3)c12 [Compound 106, (S)-4-(2-(7-fluoro-4-oxo-3,4-dihydropyrrolo[1,2-f][1,2,4]triazin-2-yl)pyrrolidin-1-yl)-7H-pyrrolo[2,3-d]pyrimidine-5-carbonitrile] |
|  |  |  |  |  | 100 | O=c1c2c(Cl)ccn2nc([C@@H]2CCCN2c2ncnc3[nH]ccc23)n1-c1ccccc1 [Compound 145] |
|  |  |  |  |  | 100 | N#Cc1c[nH]c2ncnc(N3C[C@@H](F)C[C@H]3c3nn4ccc(Cl)c4c(=O)n3Cc3ccccn3)c12 [Compound 158] |
|  | 7.06 | 7.48 |  |  |  | C[S+]([O-])c1c[nH]c2ncnc(N3CCC[C@H]3c3nn4ccc(Cl)c4c(=O)n3-c3ccccc3)c12 (stereo partly shown) [Compound 187] |
| > 9.00 |  |  |  |  |  | O=c1c2c(Cl)ccn2nc([C@@H]2C[C@H](O)CN2c2ncnc3[nH]cnc23)n1-c1ccccc1 [Compound 262] |
| 7.40 |  | 7.60 |  |  |  | Nc1ncc([N+](=O)[O-])c(N2CC[C@H]2c2nn3ccc(Cl)c3c(=O)n2-c2ccccc2)n1 [Compound 282] |
|  |  |  | 3.5 |  |  | C[S+]([O-])c1cnc(N)nc1N1CC[C@H]1c1nn2ccc(Cl)c2c(=O)n1-c1ccccc1 (stereo partly shown) [Compound 399] |
